{"source": "patent US7740906B2", "about": "“Wood preservatives” (Rohm and Haas Company, priority 2005, dated 2010)", "key": {"[1]": {"experiment": "Leaching assay (modified AWPA E11-97)", "format": "physicochemical", "settings": "1000 ppm, 3* (30% DCOIT in xylene); no polymer, no added surfactant", "source_text": "In order to provide long term protection, the preservative needs to “fix” in the wood and not deplete too rapidly by volatilization or by leaching when the wood gets wet. It might be expected that enhanced penetration or enhanced movement of the preservative deep into the wood during treatment might also lead to reduced fixation of the organic wood preservative. However, it was discovered that the polymers used to provide enhanced penetration also effectively fix the organic biocide in the wood. Two different measures of fixation were used, a dislodgeable residue assay and a very aggressive leaching assay. The dislodgeable residue assay measures how much preservative can be removed or dislodged from the surface of the wood. This is a good assay to determine how much preservative is available or has migrated to the surface of the wood. […] All of the polymers provided exceptional control of dislodgeable residues except for one water soluble polymer that probably redissolves under the assay conditions. Another measure of fixation is resistance to leaching. A very aggressive leaching assay, the AWPA E11-97 assay was used. DCOIT is considered a low leaching organic biocide as is seen by the cumulative % of DCOIT leached in Table 6 with the xylene formulation which doesn't contain any added surfactant. Nonionic surfactants can facilitate the leaching of organic preservatives. […]"}, "[2]": {"experiment": "Partitioning of DCOIT between polymer and supernatant of the treatment solution (centrifugation, HPLC)", "format": "physicochemical", "settings": "treatment solution (1500 ppm DCOIT) centrifuged at 100,000 RPM for 20 minutes", "procedure": "An aliquot of well-mixed sample was weighed into a one-ounce screw cap vial. Into the vial was pipetted 20 mL of methanol. The contents were sonicated for one hour in an ultrasonic bath. The sample was filtered through a 0.2 μm filter into an auto-sampler for analysis. The sample preparation was analyzed using a reverse phase HPLC procedure with UV detection according to the wood analysis method below.\nA 3 g sample of as is treatment solution was centrifuged at 10,000 RPM for 10 minutes to precipitate any gelled polymer or other particulates. No solid precipitated. The treatment solution sample was further centrifuged at 100,000 RPM for 20 minutes to precipitated the polymer. The precipitated polymer plug and the clear supernatant were analyzed for DCOIT by HPLC."}}, "data": [{"compound": "CCCCCCCCn1sc(Cl)c(Cl)c1=O", "note": "[DCOIT, 4,5-dichloro-2-n-octyl-4-isothiazolin-3-one]", "values": [{"measurement": "% Biocide Leached (cumulative)", "setting": "[1]", "value": 4.4, "unit": "%"}, {"measurement": "DCOIT in polymer plug", "setting": "[2]", "value": "38,000 ppm"}, {"measurement": "DCOIT in supernatant", "setting": "[2]", "value": 34, "unit": "ppm"}]}]}
